Data: patent US12037324B2, “Biarylmethyl heterocycles” (Université de Montréal, priority 2016, dated 2024)

What was measured:
AGTR1 [1] = biological target: T1, AGTR1 (Homo sapiens, UniProt P30556); assay: DiscoveRx β-arrestin2 recruitment assay (enzyme complementation, Pathunter CHO-K1 AGTR1 β-arrestin cell line); format: cell-based; details: for DiscoveRx β-arrestin2 Ymax (%): maximal response
T1 construct: host or cells: Pathunter CHO-K1 AGTR1 β-arrestin cell line (CHO-K1)
T1 sequence (P30556 1-359): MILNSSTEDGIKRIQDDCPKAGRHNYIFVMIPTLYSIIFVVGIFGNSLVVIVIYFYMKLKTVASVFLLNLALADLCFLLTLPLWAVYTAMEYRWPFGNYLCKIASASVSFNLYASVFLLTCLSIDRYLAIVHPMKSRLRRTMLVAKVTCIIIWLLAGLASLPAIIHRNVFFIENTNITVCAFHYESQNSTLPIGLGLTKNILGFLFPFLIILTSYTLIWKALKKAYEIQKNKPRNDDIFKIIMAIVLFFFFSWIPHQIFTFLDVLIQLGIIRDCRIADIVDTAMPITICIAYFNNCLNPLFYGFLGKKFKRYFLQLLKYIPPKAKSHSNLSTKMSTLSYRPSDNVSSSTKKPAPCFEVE
Outline: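 CHO-K1 cells expressing AGTR1 with β-arrestin2 enzyme-complementation reporter, plated 14-16 h ahead in 1% serum medium, then exposed to compounds for 90 min at 37° C. Chemiluminescence read after 1 h detection. EC50 (agonist) or IC50 (antagonist) from 4-parameter logistic fit; activity as percentage of All maximal effect.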

AGTR1 [2] = biological target: T1, AGTR1; assay: DiscoveRx IP1 accumulation assay (HTRF), agonist mode, Pathunter CHO-K1 AGTR1 β-arrestin cell line; format: cell-based; details: for EC50: read-out: IP-1 EC50
Outline: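 Agonist mode in CHO-K1 AGTR1 β-arrestin cells plated 14-16 h before; compounds at varying concentrations for 90 min at 37° C, IP1 accumulation read by HTRF (D2-conjugate and anti-IP1 cryptate, 20 min room temperature). EC50 from 4-parameter logistic fit; activity given as percentage of maximal AII effect.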

hAT1R [3] = biological target: T2, hAT1R (Homo sapiens, UniProt P30556); assay: BRET β-arrestin2 biosensor assay, higher receptor expression (hAT1R 5 ng/well), HEK293 cells; format: cell-based; details: for EC50: High AT1R Expression
T2 sequence (P30556 1-359): T1 sequence (P30556 1-359)

hAT1R [4] = biological target: T2, hAT1R; assay: cell-based
hAT1R [5] = biological target: T2, hAT1R; assay: cell-based; details: agonist mode; for EC50: read-out: BRET P63 EC50
[6] = DiscoveRx β-arrestin2 recruitment
[7] = section of the 42nd table ending at r951, example numbering restarts after the DiscoveRx section, read-out: β-arrestin2 EC50

For `CCCCC1=NC2(CCCC2)C(=O)N1Cc1ccc(-c2cc(-c3cccc(C)n3)ccc2-c2nn[nH]n2)cc1` [Example 138], the EC50 (AGTR1 [1]; [6]) was 13.4 nM, the “DiscoveRx β-arrestin2 Ymax (%)” value (AGTR1 [1]; [6]) was 27.9% and the “IP-1 Ymax (%)” value (AGTR1 [2]) was 6.3%. The EC50 (AGTR1 [2]) was 54.1 nM, the “BRET β-Arrestin2 High AT1R Expression Ymax (%)” value (hAT1R [3]) was 73.2% and the EC50 (hAT1R [3]) was 56.9 nM. For the same compound, the EC50 (hAT1R [4]; Low AT1R Expression, read-out: BRET β-Arrestin2 Low AT1R Expression EC50) was > 10000 nM.
For `CCc1nc2c(C)cc(C)nc2n1Cc1ccc(-c2cc(-c3cccc(C)c3)ccc2C(=O)O)cc1` [Example 182], the EC50 (AGTR1 [1]; [6]) was 84.9 nM, the “DiscoveRx β-arrestin2 Ymax (%)” value (AGTR1 [1]; [6]) was 74.2% and the “IP-1 Ymax (%)” value (AGTR1 [2]) was 6.6%. The EC50 (AGTR1 [2]) was 132 nM, the “BRET β-Arrestin2 High AT1R Expression Ymax (%)” value (hAT1R [3]) was 90.4% and the EC50 (hAT1R [3]) was 7 nM. For the same compound, the EC50 (hAT1R [4]; [7]) was 26.3 nM.
For `CCc1nc2c(C)cc(C)nc2n1Cc1ccc(-c2cc(C(=O)c3ccccc3)ccc2-c2nnn[nH]2)cc1` [Example 210, (4′-((2-Ethyl-5,7-dimethyl-3H-imidazo[4,5-b]pyridin-3-yl)methyl)-6-(1H-tetrazol-5-yl)-[1,1′-biphenyl]-3-yl)(phenyl)methanone], the EC50 (AGTR1 [1]; [6]) was 8.6 nM, the “DiscoveRx β-arrestin2 Ymax (%)” value (AGTR1 [1]; [6]) was 48.4% and the “IP-1 Ymax (%)” value (AGTR1 [2]) was 14.8%. The EC50 (AGTR1 [2]) was 82.7 nM, the “BRET β-Arrestin2 High AT1R Expression Ymax (%)” value (hAT1R [3]) was 88.2% and the EC50 (hAT1R [3]) was 9 nM. The EC50 (hAT1R [4]; [7]) was 28.4 nM.
With `CCc1nc2c(C)cc(C)nc2n1Cc1ccc(-c2cc(-n3ccc(C(F)(F)F)n3)ccc2-c2nnn[nH]2)cc1` [Example 219] the EC50 (AGTR1 [1]; [6]) was 35.2 nM, the “DiscoveRx β-arrestin2 Ymax (%)” value (AGTR1 [1]; [6]) was 21.6% and the “IP-1 Ymax (%)” value (AGTR1 [2]) was 6.9%. The EC50 (AGTR1 [2]) was 117 nM and the EC50 (hAT1R [4]; [7]) was 33.2 nM.
`CCc1nc2c(C)cc(C)nc2n1Cc1ccc(-c2cc(Oc3cc(N)ccn3)ccc2-c2nn[nH]n2)cc1` [Example 249] was tested, and the EC50 (AGTR1 [1]; [6]) was 23.8 nM, the “DiscoveRx β-arrestin2 Ymax (%)” value (AGTR1 [1]; [6]) was 34.2% and the “IP-1 Ymax (%)” value (AGTR1 [2]) was 17.6%. The EC50 (AGTR1 [2]) was 70.5 nM, the “BRET β-Arrestin2 High AT1R Expression Ymax (%)” value (hAT1R [3]) was 80.3% and the EC50 (hAT1R [3]) was 8 nM. The “BRET P63 Ymax” value (hAT1R [5]) was 6.6% and the EC50 (hAT1R [5]) was 9.5 nM.
`CCc1nc2c(C)cc(C)nc2n1Cc1ccc(-c2cc(Oc3nccs3)ccc2-c2nn[nH]n2)cc1` [Example 252] was tested, and the EC50 (AGTR1 [1]; [6]) was 34.3 nM, the “DiscoveRx β-arrestin2 Ymax (%)” value (AGTR1 [1]; [6]) was 15.8% and the “IP-1 Ymax (%)” value (AGTR1 [2]) was 8.8%. The EC50 (AGTR1 [2]) was 144 nM, the “BRET β-Arrestin2 High AT1R Expression Ymax (%)” value (hAT1R [3]) was 41.4% and the EC50 (hAT1R [3]) was 29.4 nM. For the same compound, the EC50 (hAT1R [5]) was > 100000 nM.
`CCc1nc2c(C)cc(C)nc2n1Cc1ccc(-c2cc(Oc3cncc(OC)c3)ccc2-c2nn[nH]n2)cc1` [Example 261] was tested, and the EC50 (AGTR1 [1]; [6]) was 137 nM, the “DiscoveRx β-arrestin2 Ymax (%)” value (AGTR1 [1]; [6]) was 17.3% and the “IP-1 Ymax (%)” value (AGTR1 [2]) was 11.5%. For the same compound, the EC50 (AGTR1 [2]) was 782 nM, the “BRET β-Arrestin2 High AT1R Expression Ymax (%)” value (hAT1R [3]) was 62.3% and the EC50 (hAT1R [3]) was 40 nM. For the same compound, the EC50 (hAT1R [5]) was > 100000 nM.
`Cc1nc(C)n(Cc2ccc(-c3cc(-c4ccccc4)ccc3-c3nn[nH]n3)cc2)n1` [Example 456, 5-(4″-((3,5-Dimethyl-1H-1,2,4-triazol-1-yl)methyl)-[1,1′:3′,1″-terphenyl]-4′-yl)-2H-tetrazole] showed an EC50 (AGTR1 [1]) of 1870 nM and an EC50 (hAT1R [4]; [7]) of 1970 nM.
Work on `Cc1cnn(-c2ccc(-c3nn[nH]n3)c(-c3ccc(Cn4nc(C)nc4C)cc3)c2)c1` [Example 457, 5-(4′-((3,5-Dimethyl-1H-1,2,4-triazol-1-yl)methyl)-5-(4-methyl-1H-pyrazol-1-yl)-[1,1′-biphenyl]-2-yl)-2H-tetrazole] yielded an EC50 (AGTR1 [1]) of 1140 nM and an EC50 (hAT1R [4]; [7]) of 993 nM.
With `Cc1ccnc(-c2ccc(-c3nn[nH]n3)c(-c3ccc(Cn4nc(C)nc4C)cc3)c2)c1` [Example 458, 2-(4′-((3,5-Dimethyl-1H-1,2,4-triazol-1-yl)methyl)-6-(2H-tetrazol-5-yl)-[1,1′-biphenyl]-3-yl)-4-methylpyridine] the EC50 (AGTR1 [1]) was 253 nM and the EC50 (hAT1R [4]; [7]) was 385 nM.
In the case of `Cc1cnn(-c2ccc(-c3nn[nH]n3)c(-c3ccc(Cn4cnnc4C)cc3)c2)c1` [Example 459, 5-(5-(4-Methyl-1H-pyrazol-1-yl)-4′-((3-methyl-4H-1,2,4-triazol-4-yl)methyl)-[1,1′-biphenyl]-2-yl)-2H-tetrazole], the EC50 (AGTR1 [1]) is reported as > 10000 nM and the EC50 (hAT1R [4]; [7]) is reported as 1240 nM.
